Measured values published in article PMC8308911, “Pharmacokinetic Study of Anti-osteoarthritic Compounds of a Standardized Fraction from Sphaeralcea Angustifolia” (Pharmaceuticals, 2021).
Several values for one entry are separate records, joined by “and”; a condition that tells them apart may be missing. Equal entries are not always repeated. Where two headings read alike, the source gives them in different places.

Key:
[1] = Pharmacokinetics after single oral administration of the SaTSS standardized fraction (plasma, HPLC, PKSolver); type: in vivo, ICR mice
Method: Analyses of HPLC were carried out in a Waters system (2695 Separation module) coupled to a diode array detector (2996) with a 190–600-nm detection range and operated by the Manager Millennium software system (Empower 1; Waters Corporation, Mexico City, Mexico). Separations were performed in a Spherisorb-ODS RP-18 column (250 × 4.6 mm, 5 µm; Waters Corporation, Mexico) employing a constant temperature of 25 °C during the analyses. Samples (20 µL) were eluted at a 1.0 mL/min flow rate with a gradient of mobile phases of (A) high-purity H2O with trifluoroacetic acid to 0.5% v/v (TFA, Sigma-Aldrich, Mexico City, Mexico) and (B) high purity CH3CN, and compounds were detected by monitoring absorbance for tomentin and scopoletin at λ = 343 nm and for sphaeralcic acid at λ = 357 nm. The mobile phase was started with water (100%) and was maintained for 1 min, then solvent B was gradually incorporated at 5% (at 2 min), at 30% (at 4 min), and at 50% (at 16 min). During the next 4 min, solvent B was increased to 100%, and this proportion was maintained for 5 min. Finally, the following 3 min were utilized to return the mobile phase to the initial condition. […] Identification of scopoletin and tomentin as well as sphaeralcic acid was performed by comparing their retention times (tomentin—11.288 min, scopoletin—11.349 min, coumarin mixure—11.457 min, and sphaeralcic acid—23.319 min) and absorbance spectra.
The mice were previously anesthetized with sodium pentobarbital (PiSA Agropecuaria), then retro-orbital sinus blood was obtained using heparinized capillaries and distributed to heparinized tubes, and tubes were centrifuged at 3500 g for 7 min. The plasma obtained was transferred to new tubes and stored at −4 °C until use.
Plasma samples were extracted with CH3CN and TFA (w/v) 20% (1:1), then vials were centrifuged at 14,000 g for 10 min and the supernatant was transferred to another vial and left to dry at room temperature. The precipitate was resuspended with 1 mL of high-purity methanol (Merk, México) and filtered through Teflon membrane (13 mm, 0.45 µm, Life Science). Each filtered sample was injected into the HPLC equipment, and the concentrations of tomentin and scopoletin at λ = 343 nm and of sphaeralcic acid at λ = 357 nm were obtained by comparison with pre-built calibration curves.
To evaluate the suitability of the assay for the pharmacokinetic studies, 400 mg/kg of the active SaTSS fraction standardized in a mixture of tomentin and scopoletin (7.1 mg/400 mg), and sphaeralcic acid (34.6 mg/400 mg) was administered orally or intravenously to the mice. The dose of SaTSS fraction was chosen based on previous research of active compounds, as the median efective dose of each compound and detectable concentrations of them in the fraction. For oral pharmacokinetics, ten animals were used in each group at different times (0, 1.3, 3.3, 5, 10, 20, 40, 60, 80, 120, and 240 min). For intravenous pharmacokinetics, three animals were used in each group at different times (2, 4, 6, 8, 10, 15, 20, 30, and 60 min) Subsequently, the mice were anesthetized, retro-orbital sinus blood was obtained, plasma samples were extracted with CH3CN and TFA (w/v) 20% (1:1), and the extracts were analyzed by HPLC for coumarin (tomentin and scopoletin) and sphaeralcic acid quantification. Pharmacokinetic calculations were performed using the observed data. All data were subsequently processed using the PKSolver add-in program for Microsoft Excel written in Visual Basic for Applications. All values obtained were expressed in mean ± Standard Deviation (SD). For the pharmacokinetic assay, the selection was made either from a one-compartment or from a two-compartment model, with the use of both the Akaike Information Criterion (AIC) and the Schwarz Criterion (SC). […]

[2] = Stability of the active compounds in mouse plasma under handling and storage conditions; settings: mice plasma
Method: The investigation presented here expected manipulation conditions during all of the sample storage and process periods, which included the stability data from the freeze/defrost, bench-top, autosampler, and long-term stability tests. For all stability studies, fresh QC samples were evaluated by using a freshly prepared standard curve for the measurements. The analyzed conditions were 0, 8, and 24 h at room temperature, 8 h at 4 °C, and 30 days at −70 °C. The concentrations obtained from all of the stability studies were compared with the fresh QC samples, and the percentage of concentration deviation was calculated.

[3] = oral 400 mg/kg SaTSS fraction, two-compartment model
[4] = oral 400 mg/kg SaTSS fraction, two-compartment model, 400 mg/kg
[5] = oral 400 mg/kg SaTSS fraction, two-compartment model, listed as Sphaeralcic Acid, 400 mg/kg
[6] = oral 400 mg/kg SaTSS fraction, two-compartment model, listed as sphaeralcic acid, 400 mg/kg
[7] = Autosampler (4 °C, 8 h), nominal 2.5 μg/mL
[8] = Autosampler (4 °C, 8 h), nominal 5 μg/mL
[9] = Autosampler (4 °C, 8 h), nominal 10 μg/mL
[10] = Long-term (−70 °C, 1 month), nominal 2.5 μg/mL
[11] = Long-term (−70 °C, 1 month), nominal 5 μg/mL
[12] = Long-term (−70 °C, 1 month), nominal 10 μg/mL
[13] = room temperature, 0 h, nominal 2.5 μg/mL
[14] = room temperature, 0 h, nominal 5 μg/mL
[15] = room temperature, 0 h, nominal 10 μg/mL
[16] = room temperature, 8 h, nominal 2.5 μg/mL
[17] = room temperature, 8 h, nominal 5 μg/mL
[18] = room temperature, 8 h, nominal 10 μg/mL
[19] = room temperature, 24 h, nominal 2.5 μg/mL
[20] = room temperature, 24 h, nominal 5 μg/mL
[21] = room temperature, 24 h, nominal 10 μg/mL

COc1c(C)cc2c(C(C)C)cc(C(=O)O)c(O)c2c1O [Sphaeralcic acid, sphaeralcic acid]
AUC(0-inf) ([1]; ICR, mouse, plasma, po, 400 mg/kg, oral 400 mg/kg SaTSS fraction, two-compartment model): 3470 ng·h/mL
AUC(0-t) ([1]; ICR, mouse, plasma, po, 400 mg/kg, oral 400 mg/kg SaTSS fraction, two-compartment model, read-out: AUC 0→240 (converted)): 2900 ng·h/mL
CL/F ([1]; ICR, mouse, plasma, po, 400 mg/kg, oral 400 mg/kg SaTSS fraction, two-compartment model, read-out: CL/F (apparent clearance related to bioavailability)): 170 mL/min/kg
Cmax ([1]; ICR, mouse, plasma, po, 400 mg/kg, oral 400 mg/kg SaTSS fraction, two-compartment model, read-out: Cmax): 10400 ng/mL
MRT ([1]; ICR, mouse, plasma, po, 400 mg/kg, oral 400 mg/kg SaTSS fraction, two-compartment model, read-out: MRT (mean residence time) (converted)): 40.2 min
Tmax ([1]; ICR, mouse, plasma, po, 400 mg/kg, oral 400 mg/kg SaTSS fraction, two-compartment model, read-out: Tmax (converted)): 4 min
Vd/F ([1]; ICR, mouse, plasma, po, 400 mg/kg, oral 400 mg/kg SaTSS fraction, two-compartment model, read-out: V/F (apparent volume of distribution related to bioavailability)): 1.31 L/kg
k el ([1]; ICR, mouse, plasma, po, 400 mg/kg, oral 400 mg/kg SaTSS fraction, two-compartment model, read-out: k10 (apparent first-order elimination rate constant from the central compartment) (converted)): 0.00217 s⁻¹
half-life ([1]; ICR, mouse, plasma, po, 400 mg/kg, oral 400 mg/kg SaTSS fraction, two-compartment model, read-out: t1/2β): 44.6 min
concentration at 1.3 min ([1]; ICR, mouse, plasma, oral single dose 400 mg/kg SaTSS fraction, 1.3 min, n = 10): 5040 ± 50 ng/mL
concentration at 3.3 min ([1]; ICR, mouse, plasma, oral single dose 400 mg/kg SaTSS fraction, 3.3 min, n = 10): 9920 ± 410 ng/mL
concentration at 5 min ([1]; ICR, mouse, plasma, oral single dose 400 mg/kg SaTSS fraction, 5 min, n = 10): 12800 ± 540 ng/mL
concentration at 10 min ([1]; ICR, mouse, plasma, oral single dose 400 mg/kg SaTSS fraction, 10 min, n = 10): 4030 ± 110 ng/mL
concentration at 20 min ([1]; ICR, mouse, plasma, oral single dose 400 mg/kg SaTSS fraction, 20 min, n = 10): 2770 ± 80 ng/mL
concentration at 40 min ([1]; ICR, mouse, plasma, oral single dose 400 mg/kg SaTSS fraction, 40 min, n = 10): 1380 ± 120 ng/mL
concentration at 80 min ([1]; ICR, mouse, plasma, oral single dose 400 mg/kg SaTSS fraction, 80 min, n = 10): 170 ± 30 ng/mL
concentration at 120 min ([1]; ICR, mouse, plasma, oral single dose 400 mg/kg SaTSS fraction, 120 min, n = 10): 0 ng/mL
concentration at 240 min ([1]; ICR, mouse, plasma, oral single dose 400 mg/kg SaTSS fraction, 240 min, n = 10): 0 ng/mL
products derived from biotransformation in plasma ([1]; after oral administration of SaTSS fraction): not detected
time at which the plasma concentration fell below LOQ ([1]; oral 400 mg/kg SaTSS fraction): 80 min
time of maximum (highest) observed plasma concentration ([1]; oral 400 mg/kg SaTSS fraction, observed sampling time): five
B (plasma concentration, peripheral compartment) [1, 3]: 1.845 µg/mL
k12 (transfer rate constant central to peripheral compartment) [1, 3]: 0.114 min⁻¹
k21 (transfer rate constant peripheral to central compartment) [1, 3]: 0.031 min⁻¹
α [1, 3]: 0.256 min⁻¹
β [1, 3]: 0.015 min⁻¹
Cmax [1, 4]: 10450 ng/mL
MRT (mean residence time) [1, 4]: 40.17 min
A (plasma concentration, central compartment) [1, 5]: 413.646 µg/mL
AUC 0→240 [1, 5]: 173.724 µg·min/mL
AUC 0→∞ [1, 5]: 208.058 µg·min/mL
CL/F (apparent clearance related to bioavailability) [1, 5]: 0.166 (mg)/(µg/mL)/min
Cmax [1, 5]: 10447 ng/mL
MRT (mean residence time) [1, 5]: 40.167 min
Tmax [1, 5]: 4.004 min
V/F (apparent volume of distribution related to bioavailability) [1, 5]: 1.309 (mg)/(µg/mL)
k10 (apparent first-order elimination rate constant from the central compartment) [1, 5]: 0.127 min⁻¹
ka (apparent first-order absorption rate constant) [1, 5]: 0.273 min⁻¹
t1/2ka (absorption half time) [1, 5]: 2.537 min
t1/2α [1, 5]: 2.698 min
t1/2β [1, 5]: 44.653 min
A (plasma concentration, central compartment) [1, 6]: 413 µg/mL
ka (apparent first-order absorption rate constant) [1, 6]: 0.27 min⁻¹ and 0.273 min⁻¹
t1/2ka (absorption half time) [1, 6]: 2.53 min
t1/2α [1, 6]: 2.70 min
Accuracy Bias [2, 7]: −3.89%
Observed Concentration [2, 7]: 2.40 ± 0.04 µg/mL
Accuracy Bias [2, 8]: −1.69%
Observed Concentration [2, 8]: 4.92 ± 0.08 µg/mL
Accuracy Bias [2, 9]: −3.34%
Observed Concentration [2, 9]: 9.67 ± 0.12 µg/mL
Accuracy Bias [2, 10]: −4.82%
Observed Concentration [2, 10]: 2.38 ± 0.08 µg/mL
Accuracy Bias [2, 11]: −2.61%
Observed Concentration [2, 11]: 4.87 ± 0.10 µg/mL
Accuracy Bias [2, 12]: −3.50%
Observed Concentration [2, 12]: 9.65 ± 0.08 µg/mL
Accuracy Bias [2, 13]: −0.60%
Observed Concentration [2, 13]: 2.48 ± 0.03 µg/mL
Accuracy Bias [2, 14]: 0.17%
Observed Concentration [2, 14]: 5.01 ± 0.06 µg/mL
Accuracy Bias [2, 15]: −0.49%
Observed Concentration [2, 15]: 9.95 ± 0.11 µg/mL
Accuracy Bias [2, 16]: −9.98%
Observed Concentration [2, 16]: 2.25 ± 0.13 µg/mL
Accuracy Bias [2, 17]: −8.10%
Observed Concentration [2, 17]: 4.59 ± 0.06 µg/mL
Accuracy Bias [2, 18]: −6.48%
Observed Concentration [2, 18]: 9.35 ± 0.11 µg/mL
Accuracy Bias [2, 19]: −9.03%
Observed Concentration [2, 19]: 2.27 ± 0.11 µg/mL
Accuracy Bias [2, 20]: −8.73%
Observed Concentration [2, 20]: 4.56 ± 0.10 µg/mL
Accuracy Bias [2, 21]: −7.37%
Observed Concentration [2, 21]: 9.26 ± 0.07 µg/mL
